Assay results: patent publication US8912189B2, “Pyridopyrazine derivatives and their use” (Aeterna Zentaris GmbH, priority 2011, dated 2014)

Assays:
Erk2 = biological target: T1, Erk2; assay: Cell-free kinase assay (ALPHA technology), Erk2; assay type: biochemical; details: at 10 μM ATP; recombinant human kinase
T1 construct: partly as full-length kinases, partly as shortened fragments, but at least consisting of the functional kinase domains; purchased Upstate 14-173

Hct116 = assay: XTT assay, anti-proliferative effect; assay type: cell-based; details: Homo sapiens, HCT-116; Hct116 cells, ~48 h incubation
Method: The principle of this test is based on the intracellular reduction of the tetrazolium dye XTT (sodium 3′-[1-(phenylaminocarbonyl)-3,4-tetrazolium]-bis(4-methoxy-6-nitro)benzene sulfonic acid, Sigma) to a formazan dye by mitochondrial dehydrogenases. The dye is only formed by metabolically active cells and its photometrically measurable intensity is a quantitative indicator for the presence of living cells. The reduction of dye formation by incubation of the cells with substances serves as a parameter for the anti-proliferative effect.
The tumour cell lines (ATCC) were injected into 96-well microtitre plates in a defined cell number (1250 cells/well for Hct116) and then incubated overnight in an incubator at 37° C., 5% CO2 and 95% air humidity. The test substances were prepared as stock solutions (10 mM) in DMSO. To determine the EC50 values the potential inhibitor substances were added to the cells in half-logarithmically graded dilutions, resulting in final concentrations of 1.58 nM-50 μM. The cell plates were then incubated for ˜48 h in an incubator at 37° C., 5% CO2 and 95% air humidity.
For the detection reaction the substrate XTT was mixed with PMS (N-Methyl dibenzopyrazine methylsulfate, Sigma) and added to the cells so that a final concentration of 325 μg XTT/ml and 2.5 μg PMS/ml was obtained. It was then incubated for 3 h at 37° C., 95% air humidity. The formazan salt formed by the cellular dehydrogenases could then be quantified by adsorption at 490 nm.
The % inhibition value was evaluated by means of the following formula from the values for the optical densities measured in each case at 490 nm:
Eight determinations were made for each control and two for the substance samples. The 0% control contains no cells, the 100% control (proliferation control) contains no test substance. The EC50 values were determined using GraphPadPrism.

PI3Kalpha = biological target: T2, PI3Kalpha (Homo sapiens, UniProt P42336); assay: Cell-free kinase assay (ALPHA technology), PI3Kalpha; assay type: biochemical; details: at 100 μM ATP; recombinant human kinase
T2 construct: partly as full-length kinases, partly as shortened fragments, but at least consisting of the functional kinase domains; purchased Upstate 14-602
T2 sequence (P42336 whole entry, the tested form may be a part): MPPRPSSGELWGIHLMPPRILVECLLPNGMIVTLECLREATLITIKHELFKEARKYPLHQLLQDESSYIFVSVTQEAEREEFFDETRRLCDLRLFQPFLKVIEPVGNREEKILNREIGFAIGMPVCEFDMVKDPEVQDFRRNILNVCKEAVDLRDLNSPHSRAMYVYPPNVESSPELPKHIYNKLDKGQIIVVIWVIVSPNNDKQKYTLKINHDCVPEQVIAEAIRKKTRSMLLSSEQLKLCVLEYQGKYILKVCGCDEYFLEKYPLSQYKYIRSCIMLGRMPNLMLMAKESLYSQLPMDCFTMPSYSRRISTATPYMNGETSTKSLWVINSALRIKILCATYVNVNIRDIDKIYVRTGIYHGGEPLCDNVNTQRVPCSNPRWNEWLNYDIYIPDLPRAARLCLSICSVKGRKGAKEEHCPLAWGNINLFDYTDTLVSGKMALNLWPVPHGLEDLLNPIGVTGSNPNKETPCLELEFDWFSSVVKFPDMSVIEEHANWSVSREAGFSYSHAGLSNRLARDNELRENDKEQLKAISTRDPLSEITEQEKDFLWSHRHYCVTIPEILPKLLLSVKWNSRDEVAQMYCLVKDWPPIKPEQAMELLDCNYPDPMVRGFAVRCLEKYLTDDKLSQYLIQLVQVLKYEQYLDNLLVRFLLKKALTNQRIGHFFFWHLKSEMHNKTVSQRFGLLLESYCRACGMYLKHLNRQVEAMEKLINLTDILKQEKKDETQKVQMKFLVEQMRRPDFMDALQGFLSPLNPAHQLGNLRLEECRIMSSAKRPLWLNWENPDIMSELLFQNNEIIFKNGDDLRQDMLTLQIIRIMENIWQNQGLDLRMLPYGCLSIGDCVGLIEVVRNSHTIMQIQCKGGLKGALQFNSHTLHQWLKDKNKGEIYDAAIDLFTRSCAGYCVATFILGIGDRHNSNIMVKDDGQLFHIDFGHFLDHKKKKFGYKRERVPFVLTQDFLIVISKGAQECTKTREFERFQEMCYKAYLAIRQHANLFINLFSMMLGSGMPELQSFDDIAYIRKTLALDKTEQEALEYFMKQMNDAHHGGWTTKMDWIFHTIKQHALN
T2 sequence (P27986 whole entry partner, the tested form may be a part): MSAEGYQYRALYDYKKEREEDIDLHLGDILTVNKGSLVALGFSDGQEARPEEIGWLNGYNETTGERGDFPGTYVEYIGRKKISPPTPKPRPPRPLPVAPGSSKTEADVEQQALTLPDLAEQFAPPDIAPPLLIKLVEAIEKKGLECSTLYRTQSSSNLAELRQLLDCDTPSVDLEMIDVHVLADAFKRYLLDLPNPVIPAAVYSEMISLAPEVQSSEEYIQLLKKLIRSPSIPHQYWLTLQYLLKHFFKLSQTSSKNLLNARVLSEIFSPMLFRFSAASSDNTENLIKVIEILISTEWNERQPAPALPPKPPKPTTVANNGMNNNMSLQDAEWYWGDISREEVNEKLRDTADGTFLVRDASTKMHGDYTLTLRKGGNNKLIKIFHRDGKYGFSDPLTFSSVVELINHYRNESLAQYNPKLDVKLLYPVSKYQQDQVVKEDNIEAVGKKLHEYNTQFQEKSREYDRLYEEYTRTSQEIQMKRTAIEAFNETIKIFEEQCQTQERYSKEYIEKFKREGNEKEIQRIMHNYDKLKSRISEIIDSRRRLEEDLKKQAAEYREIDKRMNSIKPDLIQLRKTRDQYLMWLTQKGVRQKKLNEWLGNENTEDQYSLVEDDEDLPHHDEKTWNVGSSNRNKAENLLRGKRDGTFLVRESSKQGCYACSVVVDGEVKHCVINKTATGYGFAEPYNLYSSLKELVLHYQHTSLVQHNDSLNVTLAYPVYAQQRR
Method: The inhibitory effect of the compounds according to the invention was tested on various serine/threonine, tyrosine and lipid kinases in enzymatic assays. Recombinant human kinases such as, for example, Erk2, PI3Kalpha and others were used in this case, partly as full-length kinases, partly as shortened fragments, but at least consisting of the functional kinase domains. The commercial kinase proteins (Proqinase, Upstate) were used as recombinant fusion proteins with GST (glutathion-S-transferase) or His-Tag. Depending on the type of substrate, the various kinase reactions were quantified by means of suitable ALPHA™ beads (Perkin-Elmer).
The substance testing is described in detail hereinafter for the Erk assay. To determine the IC50 value, the potential inhibitor substances were investigated in 10 semi-logarithmically graded concentrations of 3.16 nM-100 μM.
b) PI3K-ALPHAs (e.g. PI3Kalpha): the test substance, 1 ng PI3Kalpha (#14-602, Upstate), 100 μM ATP and 20 μM PIP2 substrate (#64910, Cayman Chemicals) were incubated on a 384-well Optiplate (Perkin-Elmer) for 1 h in 50 mM Hepes, 50 mM NaCl, 5 mM MgCl2, 0.05% Chaps, 5 mM DTT at pH 7.4. The kinase reaction was then stopped by adding ALPHA bead mixes (10 μg/ml, #6760603/Perkin-Elmer) pre-incubated with 1 nM GST:Grp1 fusion protein (Upstate) and 15 nM biotinylated PIP3 (#10009531, Cayman Chemicals) in 50 mM Hepes, 50 mM NaCl, 50 mM EDTA and 0.1% BSA and left to stand overnight.
The fluorescence was detected the following morning in a Envision plate reader (Perkin-Elmer).
The %-inhibition values per substance concentration were calculated by means of the following formula from the raw data determined in the Envision plate reader:
Eight determinations were made for each control and two for the substance samples. The 0% control either contains no ATP or no substrate, the 100% control (fully active kinase) contains no test substance. The IC50 values were determined using GraphPadPrism.

T1 sequence (P63085 2-358 limits assumed): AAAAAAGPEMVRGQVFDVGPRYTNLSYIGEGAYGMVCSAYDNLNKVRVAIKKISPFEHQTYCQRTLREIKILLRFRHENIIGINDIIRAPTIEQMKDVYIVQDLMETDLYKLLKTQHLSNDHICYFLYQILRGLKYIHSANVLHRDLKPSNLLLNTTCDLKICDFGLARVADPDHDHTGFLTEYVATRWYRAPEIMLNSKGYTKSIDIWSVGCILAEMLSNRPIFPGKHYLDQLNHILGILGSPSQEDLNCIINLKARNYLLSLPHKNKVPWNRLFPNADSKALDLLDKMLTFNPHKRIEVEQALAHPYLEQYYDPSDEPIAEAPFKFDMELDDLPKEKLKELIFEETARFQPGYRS

| Compound | IC50 (Erk2) | melting point | EC50 (Hct116) | IC50 (PI3Kalpha) |
| --- | --- | --- | --- | --- |
| CCNC(=S)Nc1ccc2ncc(-c3cnn(Cc4ccc(OC)c(OC)c4)c3)nc2n1 [Compound 28, 1-{3-[1-(3,4-Dimethoxy-benzyl)-1H-pyrazol-4-yl]-pyrido[2,3-b]pyrazin-6-yl}-3-ethyl-thiourea] | 112 nM | 213 °C | 1650 nM | 82 nM |
| CCNC(=S)Nc1ccc2ncc(-c3cnn(Cc4cccc(OC)c4F)c3)nc2n1 [Compound 29, 1-Ethyl-3-{3-[1-(2-fluoro-3-methoxy-benzyl)-1H-pyrazol-4-yl]-pyrido[2,3-b]pyrazin-6-yl}-thiourea] | 492 nM | 215 to 220 °C | 2560 nM | 112 nM |
| CCNC(=S)Nc1ccc2ncc(-c3cnn(Cc4cccc(OC)c4)c3)nc2n1 [Compound 40, 1-Ethyl-3-{3-[1-(3-methoxy-benzyl)-1H-pyrazol-4-yl]-pyrido[2,3-b]pyrazin-6-yl}-thiourea] | 336 nM | 217 to 220 °C | 2570 nM | 168 nM |
| CCNC(=O)Nc1ccc2ncc(-c3cnn(Cc4ccc(OC)c(OC)c4)c3)nc2n1 [Compound 42, 1-{3-[1-(3,4-Dimethoxy-benzyl)-1H-pyrazol-4-yl]-pyrido[2,3-b]pyrazin-6-yl}-3-ethyl-urea] | 43 nM | 205 °C | 1980 nM | 274 nM |

Further lines, results first:

| IC50 (Erk2) | melting point | EC50 (Hct116) | IC50 (PI3Kalpha) | Compound |
| --- | --- | --- | --- | --- |
| 400 nM | 258 to 261 °C | 3010 nM | 184 nM | CCNC(=S)Nc1ccc2ncc(-c3cnn(Cc4cccc(C)c4)c3)nc2n1 [Compound 41, 1-Ethyl-3-{3-[1-(3-methyl-benzyl)-1H-pyrazol-4-yl]-pyrido[2,3-b]pyrazin-6-yl}-thiourea] |
| 272 nM | 252 °C | 1950 nM | 249 nM | CCNC(=S)Nc1ccc2ncc(-c3cnn(Cc4ccccc4)c3)nc2n1 [Compound 45, 1-[3-(1-Benzyl-1H-pyrazol-4-yl)-pyrido[2,3-b]pyrazin-6-yl]-3-ethyl-thiourea] |
| 225 nM | 257 °C | 1700 nM | 208 nM | CCNC(=S)Nc1ccc2ncc(-c3cnn(Cc4ccc(O)cc4)c3)nc2n1 [Compound 210, 1-Ethyl-3-{3-[1-(4-hydroxy-benzyl)-1H-pyrazol-4-yl]-pyrido[2,3-b]pyrazin-6-yl}-thiourea] |
